# Data from patent US20130230458A1, “Cell Permeable Inhibitors of Anaphase Promoting Complex” (PRESIDENT AND FELLOWS OF HARVARD COLLEGE, priority 2010, published 2013).
# Where a SMILES comes first, the peptide text is derived from it. The star is where a group is joined. Cbz = O=C(OCc1ccccc1)*
# Tests used:
# HeLa H2B-GFP cells [1] = experiment: Live cell imaging of mitotic duration and cell fate; type: cell-based, human
# Method: Detailed siRNA transfection and drug treatment schemes are described in supplemental experimental procedures. HeLa H2B-GFP cells were plated in DMEM with 10% FBS at 20% confluence. […] Live cell imaging was performed at 12 minute intervals on a Nikon TE2000E PFS inverted microscope fitted with an incubation chamber maintained at 37° C. and supplied with 5% CO2. Cell division was tracked by manual inspection of movies, and mitotic duration was measured as the time between the first frame of chromosome condensation and the frame of chromosome segregation (anaphase), decondensation (mitotic exit without anaphase) or cell death (chromosomes shrinking to a small bright dot).
# The imaging plate was mounted onto a motorized stage (Prior ProScan II) on a Nikon TE2000E PFS inverted microscope fitted with an incubation chamber maintained at 37° C. and supplied with 5% CO2. […] TIFF files of each image were exported from Elements and used to build stacks and Quicktime movies with Metamorph imaging software (Molecular Devices). For manual analysis, mitotic duration is counted as the time between the first frame of chromosome condensation and the frame of chromosome segregation (anaphase) or decondensation (mitotic exit in the presence of nocodazole) or cell death (chromosomes shrinking to a small bright dot).
# HeLa H2B-GFP cells were plated in a 24-well plate in DMEM 10% FBS at 20% confluence one day prior to experiment and synchronized by double thymidine block as described above. […] Live cell imaging was set up as described above.
# HeLa H2B-GFP cells were plated in a 24-well plate in DMEM+10% FBS at 20% confluence one day prior to the experiment and synchronized by double thymidine block as described above. The cells were released from the first thymidine block into 200 μl OptiMem without FBS. Transfection was performed immediately after the first thymidine release. […] The two mixtures were left at room temperature for 5 min before being mixed together and incubated for additional 20 min and then added to the cells to a final volume of 250 μl. 4 h after transfection, 250 μl of DMEM+20% FBS were added to cells.
# HeLa H2B-GFP cells were plated in glass-bottom 24-well plates at 20% confluence one day prior to the experiment and synchronized by double thymidine block as described above. […] Cells were treated with 100 nM Hesperadin or DMSO 8 h after release from the second thymidine block and live cell imaging was set up as described above.
# HeLa H2B-GFP cells were plated in a 24-well plate in DMEM+10% FBS at 20% confluence one day prior to experiment and synchronized by double thymidine block as synchronized above. […] Live cell imaging was set up as described above.
# HeLa H2B-GFP cells were plated in a 24-well plate in DMEM+10% FBS at 20% confluence one day prior to experiment and synchronized by double thymidine block as described above. […] Untreated cells were used as the control. Live cell imaging was set up as described above. […] Alternatively, at 10 h after release from the second block, 10 μM MG132 with or without 25 μg/ml cycloheximide was added to the cells. […] Live cell imaging was set up as described above.
# HeLa H2B-GFP cells were plated in a 24-well plate in DMEM+10% FBS at 20% confluence one day prior to experiment and synchronized by double thymidine block as described above. Mad2 siRNA transfection was performed as described above. At 10 h after release from the second block, 10 μM MG132 with or without 25 μg/ml cycloheximide was added to the cells. Live cell imaging was set up as described above. Manual analysis was focused only on cells that entered mitosis after MG132 addition.
# HeLa H2B-GFP cells [2] = type: cell-based, human; conditions: double thymidine synchronized, drugs 10 hrs after release; proTAME 3 μM; MG132 concentration not given
# Method: To determine whether proTAME treatment can enhance mitotic arrest and cell death induced by taxol or a proteasome inhibitor (MG132), HeLa H2B-GFP cells were co-treated with low doses of the microtubule poison Taxol or the proteasome inhibitor MG132 in combination with a low dose of proTAME.
# Unsychronized HeLa H2B-GFP cells were treated with DMSO (control), taxol 10 nM or proTAME 3 μM or a combination of Taxol 10 nM and proTAME 3 μM (FIG. 26). The cells were imaged by FITC fluorescence microscopy to monitor the cell cycle and mitotic events.
# To analyze interactions between proTAME and a proteasome inhibitor (FIG. 27), HeLa H2B-GFP cells were synchronized by double thymidine block (2 mM thymidine block for 18 hrs, release in medium for 8 hrs 2 mM thymidine block for 18 hrs), and treated with the drugs 10 hrs after release from the block as the cells just entered mitosis.
# HeLa H2B-GFP cells [3] = experiment: Chromosome congression analysis; type: cell-based, human
# Method: HeLa H2B-GFP cells were plated in 35 mm glass-bottom dishes (MatTek) in DMEM+10% FBS at 20% confluence one day prior to the experiment and synchronized by double thymidine block as described above. Drugs were added as follows to a final volume of 3 ml from 2× concentrated preparation in culture medium. DMSO (0.06%), proTAME (3 and 12 μM) or 10 nM Nocodazole were added 8 h after release from the second block, while MG132 (10 μM) was added at 10 h. H2B-GFP was imaged for 4 hrs every 3 min at 40× magnification as described above.
# HeLa cells = experiment: Live imaging of HeLa cells expressing Histone 2B-GFP (Examples 1 and 2); type: cell-based, human; conditions: 3 μM MG132
# Text: Cumulative frequency curves of mitotic duration were plotted.
# The same experiment in 1B was done with proAAME.
# Synchronized HeLa cells were transfected with Mad2/control siRNA followed by drug treatments. Cumulative frequency curves of mitotic duration were plotted.
# Asynchronous HeLa cells were transfected with Mad2 or control siRNA.
# For comparison, the curves obtained in H2B-GFP fluorescent imaging experiment shown in FIG. 1B were plotted on the same graph.
# cyclin A2-GFP = experiment: Exogenous cyclin-GFP expression, live-cell imaging and quantitation (cyclin A2-GFP); type: cell-based, human; conditions: HeLa H2B-RFP; 20 μM proTAME or proAAME, 150 nM nocodazole
# Method: (§1) HeLa H2B-RFP cells were transduced with cyclin B1-GFP or cyclin A2-GFP adenovirus for 40 h. Phenol Red-Free DMEM (Mediatech) supplemented with 10% FBS and 1:100 Penicillin-Streptomycin-Glutamine (Mediatech) was used as imaging medium. 20 μM proTAME, […] or 150 nM nocodazole was added 45 min prior to the start of imaging. Live cell imaging was set up as described above except that the cells were plated in an 8-well chambered coverglasses (NUNC Lab-tek 155411). Four positions per treatment group were imaged with DIC transmitted light, red fluorescence, and green fluorescence (Semrock GFP/HcRed “Pinkel” filter set) at 12 min intervals for 24 h. Stacks of red and green fluorescence were merged, saved as AVI video files and analyzed using ImageJ. For quantitation, the first GFP-positive cells that undergo mitosis in three separate movies were chosen, giving at least 30 cells quantitated for each treatment group. Mean intensity values for the green channel were collected for a cytoplasmic region of a cell upon mitotic entry, mitotic exit, or after 1 h of mitotic arrest. At the same time points, background mean green intensity was determined and individually subtracted from the cytoplasmic mean intensity. This background corrected mean intensity value was then used to determine the percentage of the original GFP signal remaining at the completion of division (for the control cells) or after 1 h of mitotic arrest (for the nocodazole and proTAME treated cells). The average values for all quantitated cells were plotted with the error bars representing standard error of the mean.
# APC = biological target: T1, APC (Homo sapiens, UniProt P30260); experiment: Cdc20/Cdh1 binding assay in HeLa cells; type: cell-based; conditions: 12 μM, HeLa released from nocodazole block
# T1 construct: endogenous in cells; host or cells: HeLa cells (synchronised; in some experiments also Mad2/BubR1 siRNA and cyclin B1Δ107 adenovirus)
# T1 sequence (P30260 whole entry): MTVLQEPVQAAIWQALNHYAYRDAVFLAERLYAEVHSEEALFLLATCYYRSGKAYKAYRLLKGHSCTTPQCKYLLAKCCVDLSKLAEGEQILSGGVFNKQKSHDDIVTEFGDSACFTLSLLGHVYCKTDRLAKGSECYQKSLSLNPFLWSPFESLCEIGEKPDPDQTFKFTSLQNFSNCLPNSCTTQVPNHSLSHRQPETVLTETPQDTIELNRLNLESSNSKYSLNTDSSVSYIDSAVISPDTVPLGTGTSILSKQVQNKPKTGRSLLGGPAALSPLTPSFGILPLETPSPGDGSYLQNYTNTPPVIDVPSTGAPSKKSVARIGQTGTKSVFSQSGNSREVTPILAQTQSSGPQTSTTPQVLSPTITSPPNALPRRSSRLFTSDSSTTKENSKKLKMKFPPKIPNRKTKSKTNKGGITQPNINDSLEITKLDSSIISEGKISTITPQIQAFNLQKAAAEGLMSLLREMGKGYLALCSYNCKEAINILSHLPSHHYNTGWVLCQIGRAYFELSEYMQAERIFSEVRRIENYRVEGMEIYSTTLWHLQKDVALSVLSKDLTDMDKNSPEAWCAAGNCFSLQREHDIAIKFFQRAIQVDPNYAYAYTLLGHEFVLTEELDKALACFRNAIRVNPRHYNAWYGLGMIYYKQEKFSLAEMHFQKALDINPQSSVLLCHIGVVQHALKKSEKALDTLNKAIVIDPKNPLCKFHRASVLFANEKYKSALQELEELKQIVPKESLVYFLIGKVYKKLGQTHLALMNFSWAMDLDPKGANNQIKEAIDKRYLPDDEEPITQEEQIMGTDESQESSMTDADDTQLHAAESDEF
# Method: HeLa cells in DMEM 10% FBS were plated in T25 flasks at 20% confluence one day prior to the experiment. They were then synchronized by a double thymidine block (18 h for the first block, 8 h release and another 18 h for the second block, thymidine concentration: 2 mM). For analysis of Cdh1 binding, cells were released into […] from the second thymidine block for 13 h and then washed into fresh medium. Six h later, cells were treated with 12 μM proTAME or […] or 0.06% DMSO for 2 h and then collected by trypin digrestion. For analysis of Cdc20 binding, cells were transfected with indicated siRNAs during the first release from thymidine block after two washes with DPBS (CellGro 21-030-CV) and addition of 6.3 ml OptiMEM. A volume (79 μl) of 20 μl Control siRNA#3 or a 1:1 mix of 20 μl MAD2 siRNA and BubR1 siRNA (Dharmacon D-004101-01, 5′-[…]-3′ (SEQ ID NO: 11)) was mixed in 1381 μl OptiMEM in a tube, 23.7 μl OligoFectamine were mixed with 94.1 μl OptiMEM in a second tube. After 5 min incubation at RT, the tubes contents were mixed and siRNA-reagent complexes were allowed to form for 20 min at RT. The transfection mixes were added to cells in OptiMEM and FBS was added to 10% after 5 h transfection. Cyclin B1-4107 expressing adenovirus (1:100) was added at the start of the second thymidine block and kept in the medium for all subsequent steps. […]
# hTERT-RPE1 H2B-GFP cells = experiment: Live cell imaging of mitotic duration in hTERT-RPE1 cells; type: cell-based
# Method: FIG. 18A is a graph and table showing that proTAME induces a mitotic delay in hTERT-RPE1 H2B-GFP cells. Asynchronous hTERT-RPE1 H2B-GFP cells were treated with 0.06% DMSO, 6 μM proTAME or 12 μM proAAME. Cells were imaged at 12 min interval. Cumulative frequency curves of mitotic duration and cell fate distribution are shown.
# The imaging plate was mounted onto a motorized stage (Prior ProScan II) on a Nikon TE2000E PFS inverted microscope fitted with an incubation chamber maintained at 37° C. and supplied with 5% CO2. A 20× Plan Apo 0.75 NA or 40× Plan Fluor 0.75 NA objective lens was used as indicated and images were collected with 2×2 binning DIC or GFP fluorescent images were taken every 12 min (unless otherwise specified) for 36 h with a Hamamatsu ORCA cooled CCD camera and Nikon Elements Software. TIFF files of each image were exported from Elements and used to build stacks and Quicktime movies with Metamorph imaging software (Molecular Devices). For manual analysis, mitotic duration is counted as the time between the first frame of chromosome condensation and the frame of chromosome segregation (anaphase) or decondensation (mitotic exit in the presence of nocodazole) or cell death (chromosomes shrinking to a small bright dot).
# cyclin B1-GFP = experiment: Exogenous cyclin-GFP expression, live-cell imaging and quantitation (cyclin B1-GFP); type: cell-based, human; conditions: HeLa H2B-RFP; 20 μM proTAME or proAAME, 150 nM nocodazole
# Method: as §1
# [4] = proTAME 12 μM, MG132 10 μM, Nocodazole 10 nM
# [5] = 12 μM, double thymidine synchronized, added 8 h after release
# [6] = asynchronous hTERT-RPE1 H2B-GFP, proAAME 12 μM, proTAME 6 μM
Compound,"Cells that exited mitosis during the 30 h experiment (HeLa H2B-GFP cells [1]; 3 μM MG132, control cells) [%]",Time a normal-appearing metaphase plate is maintained (HeLa H2B-GFP cells [1]; MG132 alone),Median mitotic delay / arrest (HeLa H2B-GFP cells [2]) [min],Delay in chromosome congression (in words) (HeLa H2B-GFP cells [3]; 3 μM proTAME or 10 μM MG132),Average chromosome congression time (prophase to full metaphase congression) (HeLa H2B-GFP cells [3]; [4]) [min],Median chromosome congression time (prophase to full metaphase congression) (HeLa H2B-GFP cells [3]; [4]) [min],Mad2-dependence of mitotic arrest (HeLa cells),Mitotic phenotype (HeLa H2B-GFP cells [1]; 12 μM),Average mitotic duration (HeLa H2B-GFP cells [1]; [5]) [min],Median mitotic duration (HeLa H2B-GFP cells [1]; [5]) [min],Average cyclin A2-GFP intensity remaining at 60 min vs onset of mitosis (cyclin A2-GFP) [fraction remaining],Median cyclin A2-GFP intensity remaining at 60 min vs onset of mitosis (cyclin A2-GFP) [fraction remaining],Cdh1 association with the APC in G1 cells (APC),Average mitotic duration (hTERT-RPE1 H2B-GFP cells; [6]) [min],Median mitotic duration (hTERT-RPE1 H2B-GFP cells; [6]) [min],Median mitotic duration (hTERT-RPE1 H2B-GFP cells; proAAME-treated hTERT-RPE1 cells) [min],Average cyclin B1-GFP intensity remaining at 60 min vs onset of mitosis (cyclin B1-GFP) [fraction remaining],Median cyclin B1-GFP intensity remaining at 60 min vs onset of mitosis (cyclin B1-GFP) [fraction remaining]
"CC(C)C[C@@H](C=O)NC(=O)[C@H](CC(C)C)NC(=O)[C@H](CC(C)C)NC(=O)OCc1ccccc1 [MG132, reference compound] (Cbz-Leu-Leu-Leu-aldehyde)",10,over 5 h,276,no delay in chromosome congression,21.6,21,partially dependent on Mad2,–,–,–,–,–,–,–,–,–,–,–
"COC(=O)[C@H](CC(C)N=C(NC(=O)OCOC(=O)Cc1ccccc1)NC(=O)OCOC(=O)Cc1ccccc1)NC(C)=O (stereo partly drawn) [proAAME, methyl(S)-2-(acetyl)amino-4-[[bis[[[[(phenylacetyl)oxy]methoxy]carbonyl]amino]methylene]amino]pentanoate]",–,–,–,–,–,–,–,no effect,100.5,84,0.08,0.06,did not,32.1,36,24,0.15,0.15
